Our source for the inhibition values is US20230322722A1, “MODULATORS OF MYC FAMILY PROTO-ONCOGENE PROTEIN” (Nalo Therapeutics, priority 2020, published 2023).

Type in all cases: cell-based
Assay [1] concerns the target T1, MycN protein (Homo sapiens, UniProt P04198).
T1 construct: either 2×10^6 of L-363 (human leukemia cell line) or SKNBE2 (neuroblastoma cell line) cells; endogenous in cells; host or cells: SKNBE2 / SK-N-BE(2) neuroblastoma cells
T1 sequence (P04198 1-464): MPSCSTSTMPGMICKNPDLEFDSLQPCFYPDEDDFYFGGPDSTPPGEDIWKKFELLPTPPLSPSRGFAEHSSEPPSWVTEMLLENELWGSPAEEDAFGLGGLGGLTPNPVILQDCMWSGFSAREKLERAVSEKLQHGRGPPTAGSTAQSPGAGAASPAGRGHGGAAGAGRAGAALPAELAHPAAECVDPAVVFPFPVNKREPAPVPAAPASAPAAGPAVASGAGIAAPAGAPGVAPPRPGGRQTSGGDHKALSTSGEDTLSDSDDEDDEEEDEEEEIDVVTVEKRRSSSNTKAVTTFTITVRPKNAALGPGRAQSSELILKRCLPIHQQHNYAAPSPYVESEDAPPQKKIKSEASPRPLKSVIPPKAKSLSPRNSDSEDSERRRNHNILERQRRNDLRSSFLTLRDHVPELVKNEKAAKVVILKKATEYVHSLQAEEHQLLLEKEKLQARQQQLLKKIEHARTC
The experiment in a line: Degradation of MycN protein, Western blot, SKNBE2 cells (Example 160). The procedure:
In a T150 flask was plated either 2×10^6 of L-363 (human leukemia cell line) or SKNBE2 (neuroblastoma cell line) cells in a total of 30 mL containing Roswell Park Memorial Institute (RPMI) 1640 Medium (Thermo Fisher, Cat. #11875-085), 10% Fetal Bovine Serum (FBS, Thermo Fisher: Cat. #10437-028), 1% Penicillin/streptomycin (Thermo Fisher: Cat. #10378016), and 1% Amophotericin B (Thermo Fisher, Cat. #15290026). The cells were split every 72 hours by reseeding the L-363 or SKNBE2 cells, and the passage number was noted. It is noteworthy that cell cultures that were above 40 passages were not used, and most experiments were done with cells of less than 30 passages.
In a 6-well cell culture plate, a total of 3 mL of either 1×10^6 cells/mL of L-363 or SKNBE2 cells were seeded, resulting in a total of 3×10^6 cells per well. To each well containing 3 mL of either L-363 or SKNBE2 cell line was added 6 uL of MycN modulating compound (1 mM) and the resulting plate was shaken from left to right, and not swirled. After 6 hours, the cells were placed in a 15 mL falcon tube and spun at 500 Gs at 4° C. in a swinging bucket centrifuge. The medium was then carefully removed without disturbing the pellet. The pellet was then washed with 3 mLs of chilled phosphate buffered saline (PBS) and subjected to the spin cycle. PBS was then removed and the pellet was lysed in 200 uL of radioimmunoprecipitation (RIPA) lysis buffer (Thermo Fisher: Cat. #899000) that is supplemented with protease and phosphatase inhibitors (Thermo Fisher: Cat. #A32959). The cell lysate was then subjected to spinning in a centrifuge for 10 minutes at 13000 G at 4° C. The supernatant was then carefully transferred to a fresh eppendorf tube without disturbing the pellet (˜180 uL). The protein concentration of the cell lysate was then determined by using a bicinchoninic acid (BCA assay) according to manufacturer's protocol (Thermo Fisher: Cat. #23227).
Cell lysate, approximately 25 ug-30 ug, was loaded per well in a 4-20% polyacrylamide gel (Biorad. Cat. #5671094). After running the dye front off of the gel, the gel was transferred to a nitrocellulose membrane (Biorad: Cat. #1704159) using the transblot turbo system (Biorad: Cat. #1704150) according to manufacturer's protocol. After transferring for 30 minutes, the membrane was blocked with 5% BSA for 1 hour at room temperature. The BSA was then washed off and the primary antibody of choice (1:500) was added, and the membrane was incubated with the primary antibody at 4° C. for overnight. The next morning, the primary antibody was removed and the membrane was washed with 1×-TBST for 10 minutes and repeated three more times. Following the last wash, a secondary antibody (Molecular Devices. Cat. #R8209 or R8208) was added at 1:5000 dilution and incubated for 1 hour at room temperature. Following the incubation with the secondary antibody, the membrane was washed with 1×-TBST for 10 minutes and repeated three more times. Following the last wash, the membrane was washed with de-ionized water twice and dried for at least two hours. Once the membrane is completely dry, the Molecular Devices Spectra Max western system was used to observe the bands. The western image was saved and the band density was measured with ImageJ software.
For orientation: In western blotting, separated proteins are transferred to a membrane and probed.

The target of assay [2] is T2, MycN protein (n-myc) (Homo sapiens, UniProt P04198).
T2 construct: either 2×10^6 of L-363 (human leukemia cell line) or SKNBE2 (neuroblastoma cell line) cells; endogenous in cells; host or cells: SKNBE2 / SK-N-BE(2) neuroblastoma cells
T2 sequence (P04198 1-464): T1 sequence (P04198 1-464)
In words: Degradation of MycN protein, 24 h treatment, JESS Western, SK-N-BE(2) cells (Example 161). The note with it: SKNBE2 cells. The protocol:
(§1) For L363 cells (suspension), 1E6 cells were plated into each well of a 6 well plate. For SK-N-BE(2) cells (adherent), 5E5 cells were plated into each well of a 6 well dish. […] All compounds were diluted to 10 mM in DMSO. Cells were treated with the compound for 24 hrs, then for both cell types, media containing cells were removed from wells into a 15 ml centrifuge tube, and remaining adherent SK-N-BE(2) cells were also scraped from the wells into the appropriate tubes. Tubes were centrifuged, cells were washed with PBS then re-centrifuged to pellet cells. A RIPA buffer cocktail was added to the cells on ice for 5 mins. Cell lysates were clarified by centrifugation and stored at −80 degrees until required. BCA assay was performed on each lysate to determine the protein concentration.
(§2) For validation studies of antibodies, lysates and antibodies were used at a number of concentrations (Lysates: 2, 1, 0.2 mg/ml; Antibodies: 1 in 50, 1 in 200 dilution). Once an appropriate lysate concentration and antibody concentration was determined, samples were screened in the JESS technology (Protein Simple, San Jose, CA—https://www.proteinsimple.com/jess.html).
(§3) Target protein antibodies (n-myc and c-myc) were detected in the chemi-luminescence channel and loading controls (tubulin and GAPDH) were detected using a Near Infra Red (NIR) labeled secondary antibody.
(§4) For SK-N-EB2 adherent cells, 5E5 cells in 1.9 mls media were plated into 6 well dishes and incubated for 24 hrs. […] Cells were scrapped off the plate, centrifuged, washed with PBS, centrifuged, then a RIPA buffer cocktail added to the cells (100 ul), centrifuged and stored at −80 for later analysis. For L363 suspension cells, 1E6 cells were plated into […] (950 ul media) and incubated for 24 hrs. […] Cells were aspirated into tubes, centrifuged, washed with PBS, centrifuged, then a RIPA buffer cocktail added to the cells (100 ul), centrifuged and stored at −80 for later analysis.
(§5) For Western blot, a BCA (total protein) assay was run on all samples, these were then run in batches of 5 compounds plus control (DMSO) on each Western blot run—n-myc and c-myc were run in separate experiments in the chemiluminescence channel. Both tubulin and GAPDH were run as loading controls in all lanes in the near infra red channel.

In assay [3] the target is T3, MycC protein (c-myc) (Homo sapiens, UniProt P01106).
T3 construct: either 2×10^6 of L-363 (human leukemia cell line) cells; endogenous in cells; host or cells: L-363 / L363 human leukemia cells
In words: Degradation of MycC protein, 24 h treatment, JESS Western, L363 cells (Example 161). The following applies: L-363 cells. The procedure: as §1, §2, §3, §4, §5

Molecules are shown by their SMILES.

T3 sequence (P01106 whole entry): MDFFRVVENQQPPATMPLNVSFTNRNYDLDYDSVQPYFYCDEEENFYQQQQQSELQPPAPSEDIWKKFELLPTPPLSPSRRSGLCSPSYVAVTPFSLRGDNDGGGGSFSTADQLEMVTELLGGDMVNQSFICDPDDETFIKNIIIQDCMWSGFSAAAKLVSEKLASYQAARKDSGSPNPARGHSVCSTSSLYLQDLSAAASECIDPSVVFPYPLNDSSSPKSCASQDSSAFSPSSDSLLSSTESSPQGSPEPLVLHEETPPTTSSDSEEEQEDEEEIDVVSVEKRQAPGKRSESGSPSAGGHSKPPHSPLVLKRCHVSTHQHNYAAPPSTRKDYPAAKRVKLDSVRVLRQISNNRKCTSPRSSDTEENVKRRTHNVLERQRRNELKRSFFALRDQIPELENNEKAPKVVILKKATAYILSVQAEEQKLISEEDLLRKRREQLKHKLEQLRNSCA

As to `CN(c1nccc(Nc2cc(C3CC3)[nH]n2)n1)[C@H]1CC[C@H](NC(=O)N2Cc3ccccc3C2)CC1` [Compound 11, N-((1R,4R)-4-((4-((5-cyclopropyl-1H-pyrazol-3-yl)amino)pyrimidin-2-yl)(methyl)amino)cyclohexyl)isoindoline-2-carboxamide], the inhibition at 2 µM in assay [1] (SKNBE2, 6 h) is 50 to 79%.
As for `COCCOCCN1CC2(CC(N(C)c3nccc(Nc4cc(C5CC5)[nH]n4)n3)C2)C1` [Compound 22, N4-(5-Cyclopropyl-1H-pyrazol-3-yl)-N2-(2-(2-(2-methoxyethoxy)ethyl)-2-azaspiro[3.3]heptan-6-yl)-N2-methylpyrimidine-2,4-diamine], in assay [2] (0.5 μM), the inhibition at 0.5 µM is below 20%. Moreover, in assay [2], the inhibition at 1 µM is 20 to 49%, the inhibition at 3 µM is 20 to 49% and the inhibition at 6 µM lay in the range of 20 to 49%.
In the case of `CN(c1nccc(Nc2cc(C3CC3)[nH]n2)n1)C1CC2(C1)CN(CC(=O)Nc1ccc(S(C)(=O)=O)cc1)C2` [Compound 24, 2-(6-((4-((5-Cyclopropyl-1H-pyrazol-3-yl)amino)pyrimidin-2-yl)(methyl)amino)-2-azaspiro[3.3]heptan-2-yl)-N-(4-(methylsulfonyl)phenyl)acetamide], the inhibition at 6 µM in assay [3] was in the range of 80 to 100%.
In assay [3] (0.5 μM), `CN1CCN(C(=O)CN2CC3(CC(N(C)c4nccc(Nc5cc(C6CC6)[nH]n5)n4)C3)C2)CC1` [Compound 30, 2-(6-((4-((5-Cyclopropyl-1H-pyrazol-3-yl)amino)pyrimidin-2-yl)(methyl)amino)-2-azaspiro[3.3]heptan-2-yl)-1-(4-methylpiperazin-1-yl)ethan-1-one] had an inhibition at 0.5 µM of 20 to 49%. Also, the inhibition at 1 µM in assay [3] (1 μM) fell in the range of 20 to 49%. The inhibition at 3 µM in assay [3] (3 μM) was below 20%. Moreover, the inhibition at 6 µM in assay [3] was below 20%.
In assay [2], `CN(c1nccc(Nc2cc(C3CC3)[nH]n2)n1)C1CC2(C1)CN(S(=O)(=O)c1cn3c(n1)CCCC3)C2` [Compound 36, N4-(5-Cyclopropyl-1H-pyrazol-3-yl)-N2-methyl-N2-(2-((5,6,7,8-tetrahydroimidazo[1,2-a]pyridin-2-yl)sulfonyl)-2-azaspiro[3.3]heptan-6-yl)pyrimidine-2,4-diamine] gave an inhibition at 1 µM below 20%, an inhibition at 3 µM below 20% and an inhibition at 6 µM below 20%.
As to `CN(c1nccc(Nc2cc(C3CC3)[nH]n2)n1)[C@H]1CC[C@H](NC(=O)C2Cc3ccccc3C2)CC1` [Compound 101, N-((1R,4R)-4-((4-((5-cyclopropyl-1H-pyrazol-3-yl)amino)pyrimidin-2-yl)(methyl)amino)cyclohexyl)-2,3-dihydro-1H-indene-2-carboxamide], the inhibition at 2 µM in assay [1] (SKNBE2, 6 h) was in the range of 50 to 79%.
`CN(c1nccc(Nc2cc(C3CCCC3)[nH]n2)n1)C1CCC(CC(=O)NC2Cc3ccc(C#N)cc3C2)CC1` (stereo not drawn) [Compound 102, N-(5-cyano-2,3-dihydro-1H-inden-2-yl)-2-(4-((4-((5-cyclopentyl-1H-pyrazol-3-yl)amino)pyrimidin-2-yl)(methyl)amino)cyclohexyl)acetamide] yielded an inhibition at 2 µM in assay [1] (6 h) of 80 to 100%.
`CN(c1nccc(Nc2cc(C3CCCC3)[nH]n2)n1)[C@H]1CC[C@H](NC(=O)Cc2cccc(C(F)(F)F)c2)CC1` [Compound 103, N-((1R,4R)-4-((4-((5-cyclopentyl-1H-pyrazol-3-yl)amino)pyrimidin-2-yl)(methyl)amino)cyclohexyl)-2-(3-(trifluoromethyl)phenyl)acetamide]: the inhibition at 2 µM in assay [1] (SKNBE2, 6 h) lay in the range of 50 to 79%.
On the same count and under the same terms, then `CN(c1nccc(Nc2cc(C3CC3)[nH]n2)n1)[C@H]1CC[C@H](NC(=O)Cc2cccc(C(F)(F)F)c2)CC1` [Compound 104, N-((1R,4R)-4-((4-((5-cyclopropyl-1H-pyrazol-3-yl)amino)pyrimidin-2-yl)(methyl)amino)cyclohexyl)-2-(3-(trifluoromethyl)phenyl)acetamide], with 20 to 49%.
`CN(c1nccc(Nc2cc(C3CCCC3)[nH]n2)n1)[C@H]1CC[C@H](NC(=O)C2Cc3ccccc3C2)CC1` [Compound 105, N-((1R,4R)-4-((4-((5-cyclopentyl-1H-pyrazol-3-yl)amino)pyrimidin-2-yl)(methyl)amino)cyclohexyl)-2,3-dihydro-1H-indene-2-carboxamide]: the inhibition at 2 µM in assay [1] (SKNBE2, 6 h) fell in the range of 50 to 79%.
Still for that read-out and setting: then `CN(c1nccc(Nc2cc(C3CCCC3)[nH]n2)n1)[C@H]1CC[C@H](NC(=O)CC2Cc3ccccc3C2)CC1` [Compound 106, N-((1R,4R)-4-((4-((5-cyclopentyl-1H-pyrazol-3-yl)amino)pyrimidin-2-yl)(methyl)amino)cyclohexyl)-2-(2,3-dihydro-1H-inden-2-yl)acetamide], with 20 to 49%.
As for `CN(c1nccc(Nc2cc(C3CC3)[nH]n2)n1)[C@H]1CC[C@H](NC(=O)c2cccc(C(F)(F)F)c2)CC1` [Compound 107, N-((1R,4R)-4-((4-((5-cyclopropyl-1H-pyrazol-3-yl)amino)pyrimidin-2-yl)(methyl)amino)cyclohexyl)-3-(trifluoromethyl)benzamide], the inhibition at 2 µM in assay [1] (SKNBE2, 6 h) lay within 50 to 79%.
Compound `CN(c1nccc(Nc2cc(C3CC3)[nH]n2)n1)[C@H]1CC[C@H](NC(=O)Cc2cccc(C#N)c2)CC1` [Compound 114, 2-(3-cyanophenyl)-N-((1R,4R)-4-((4-((5-cyclopropyl-1H-pyrazol-3-yl)amino)pyrimidin-2-yl)(methyl)amino)cyclohexyl)acetamide] displayed an inhibition at 2 µM in assay [1] (SKNBE2, 6 h) of 50 to 79%.

What is called inhibition is the percentage by which the read-out fell short of the control.
